Test results taken from US20160122820A1, “Screening Method for Identifying Active Agents” (Avon Products, Inc., priority 2014, published 2016).

Tested on: human skin
Settings: for CYP7B1 gene expression (fold change): in vivo; for BIRC3 gene expression (fold change) / C1orf162 gene expression (fold change) / CCR2 gene expression (fold change) / CD1B gene expression (fold change) / CD2 gene expression (fold change) / CD53 gene expression (fold change) / CD86 gene expression (fold change) / CD226 gene expression (fold change) / CHRM4 gene expression (fold change) / CLEC7A gene expression (fold change) / COL3A1 gene expression (fold change) / COL5A2 gene expression (fold change) / COL6A6 gene expression (fold change) / COL14A1 gene expression (fold change) / CTSS gene expression (fold change) / CYBB gene expression (fold change) / CYTIP gene expression (fold change) / DIO2 gene expression (fold change) / EVI2B gene expression (fold change) / FAP gene expression (fold change) / FCGR2A gene expression (fold change) / FPR3 gene expression (fold change) / FYB gene expression (fold change) / GDPD2 gene expression (fold change) / GLIPR1 gene expression (fold change) / GMFG gene expression (fold change) / GPR174 gene expression (fold change) / GZMK gene expression (fold change) / HIST1H3A gene expression (fold change) / HLA-DPA1 gene expression (fold change) / HLA-DQA1 gene expression (fold change) / HLA-DRA gene expression (fold change) / IFI44L gene expression (fold change) / IFI44 gene expression (fold change) / IL33 gene expression (fold change) / IRF8 gene expression (fold change) / KIAA0226L gene expression (fold change) / KLRB1 gene expression (fold change) / LYZ gene expression (fold change) / MIRLET7C gene expression (fold change) / MNDA gene expression (fold change) / OCA2 gene expression (fold change) / PARP14 gene expression (fold change) / PCSK2 gene expression (fold change) / PLAC8 gene expression (fold change) / PLEK gene expression (fold change) / PTPRC gene expression (fold change) / RGS1 gene expression (fold change) / RNASE6 gene expression (fold change) / SAMD9 gene expression (fold change) / SELL gene expression (fold change) / SPP1 gene expression (fold change) / SRGN gene expression (fold change) / ST8SIA4 gene expression (fold change) / TPPP gene expression (fold change) / TRPM1 gene expression (fold change) / UGT2A1 gene expression (fold change) / VCAM1 gene expression (fold change): photodamaged forearm skin, 0.02% partially occlusive patch 30 days, 30-day biopsy relative to baseline, negative = downregulated

For CC1=C(/C=C/C(C)=C/C=C/C(C)=C/C(=O)O)C(C)(C)CCC1 [RA, retinoic acid], the “CYP7B1 gene expression (fold change)” value was 1.320 fold change, the “BIRC3 gene expression (fold change)” value was 1.555 fold change and the “C1orf162 gene expression (fold change)” value was 1.356 fold change. For the same molecule, the “CCR2 gene expression (fold change)” value was 1.658 fold change, the “CD1B gene expression (fold change)” value was 1.510 fold change and the “CD2 gene expression (fold change)” value was 1.339 fold change. The “CD53 gene expression (fold change)” value was 1.586 fold change, the “CD86 gene expression (fold change)” value was 1.468 fold change and the “CD226 gene expression (fold change)” value was 1.423 fold change. The “CHRM4 gene expression (fold change)” value was −1.326 fold change, the “CLEC7A gene expression (fold change)” value was 1.964 fold change and the “COL3A1 gene expression (fold change)” value was 1.443 fold change. The “COL5A2 gene expression (fold change)” value was 1.369 fold change, the “COL6A6 gene expression (fold change)” value was 2.091 fold change and the “COL14A1 gene expression (fold change)” value was 1.311 fold change. The “CTSS gene expression (fold change)” value was 1.302 fold change, the “CYBB gene expression (fold change)” value was 1.637 fold change and the “CYTIP gene expression (fold change)” value was 1.336 fold change. The “DIO2 gene expression (fold change)” value was −1.548 fold change, the “EVI2B gene expression (fold change)” value was 1.405 fold change and the “FAP gene expression (fold change)” value was 1.370 fold change. For the same molecule, the “FCGR2A gene expression (fold change)” value was 1.366 fold change, the “FPR3 gene expression (fold change)” value was 1.439 fold change and the “FYB gene expression (fold change)” value was 1.483 fold change. For the same molecule, the “GDPD2 gene expression (fold change)” value was −2.585 fold change, the “GLIPR1 gene expression (fold change)” value was 1.422 fold change and the “GMFG gene expression (fold change)” value was 1.358 fold change. For the same molecule, the “GPR174 gene expression (fold change)” value was 1.411 fold change, the “GZMK gene expression (fold change)” value was 1.571 fold change and the “HIST1H3A gene expression (fold change)” value was 1.375 fold change. For the same molecule, the “HLA-DPA1 gene expression (fold change)” value was 1.466 fold change, the “HLA-DQA1 gene expression (fold change)” value was 1.594 fold change and the “HLA-DRA gene expression (fold change)” value was 1.403 fold change. For the same molecule, the “IFI44L gene expression (fold change)” value was 1.472 fold change, the “IFI44 gene expression (fold change)” value was 1.337 fold change and the “IL33 gene expression (fold change)” value was 1.587 fold change. The “IRF8 gene expression (fold change)” value was 1.725 fold change, the “KIAA0226L gene expression (fold change)” value was 1.307 fold change and the “KLRB1 gene expression (fold change)” value was 1.363 fold change. For the same molecule, the “LYZ gene expression (fold change)” value was 2.271 fold change, the “MIRLET7C gene expression (fold change)” value was −1.319 fold change and the “MNDA gene expression (fold change)” value was 1.406 fold change. For the same molecule, the “OCA2 gene expression (fold change)” value was −1.432 fold change, the “PARP14 gene expression (fold change)” value was 1.364 fold change and the “PCSK2 gene expression (fold change)” value was −1.825 fold change. The “PLAC8 gene expression (fold change)” value was 1.844 fold change, the “PLEK gene expression (fold change)” value was 1.667 fold change and the “PTPRC gene expression (fold change)” value was 1.606 fold change. The “RGS1 gene expression (fold change)” value was 1.503 fold change, the “RNASE6 gene expression (fold change)” value was 1.540 fold change and the “SAMD9 gene expression (fold change)” value was 5.339 fold change. For the same molecule, the “SELL gene expression (fold change)” value was 1.691 fold change, the “SPP1 gene expression (fold change)” value was 1.416 fold change and the “SRGN gene expression (fold change)” value was 1.569 fold change. For the same molecule, the “ST8SIA4 gene expression (fold change)” value was 1.389 fold change, the “TPPP gene expression (fold change)” value was −1.402 fold change and the “TRPM1 gene expression (fold change)” value was −1.306 fold change. The “UGT2A1 gene expression (fold change)” value was −1.369 fold change and the “VCAM1 gene expression (fold change)” value was 1.730 fold change.
In the case of CC1=C(/C=C/C(C)=C/C=C/C(C)=C/CO)C(C)(C)CCC1 [Retinol, retinol], the “CYP7B1 gene expression (fold change)” value is reported as 1.309 fold change, the “BIRC3 gene expression (fold change)” value is reported as 1.815 fold change and the “C1orf162 gene expression (fold change)” value is reported as 1.301 fold change. For the same molecule, the “CCR2 gene expression (fold change)” value was 1.416 fold change, the “CD1B gene expression (fold change)” value was 1.844 fold change and the “CD2 gene expression (fold change)” value was 1.311 fold change. For the same molecule, the “CD53 gene expression (fold change)” value was 1.483 fold change, the “CD86 gene expression (fold change)” value was 1.348 fold change and the “CD226 gene expression (fold change)” value was 1.396 fold change. The “CHRM4 gene expression (fold change)” value was −1.401 fold change, the “CLEC7A gene expression (fold change)” value was 1.502 fold change and the “COL3A1 gene expression (fold change)” value was 1.455 fold change. The “COL5A2 gene expression (fold change)” value was 1.380 fold change, the “COL6A6 gene expression (fold change)” value was 2.245 fold change and the “COL14A1 gene expression (fold change)” value was 1.408 fold change. The “CTSS gene expression (fold change)” value was 1.514 fold change, the “CYBB gene expression (fold change)” value was 1.413 fold change and the “CYTIP gene expression (fold change)” value was 1.481 fold change. The “DIO2 gene expression (fold change)” value was −1.384 fold change, the “EVI2B gene expression (fold change)” value was 1.323 fold change and the “FAP gene expression (fold change)” value was 1.518 fold change. The “FCGR2A gene expression (fold change)” value was 1.346 fold change, the “FPR3 gene expression (fold change)” value was 1.321 fold change and the “FYB gene expression (fold change)” value was 1.404 fold change. For the same molecule, the “GDPD2 gene expression (fold change)” value was −1.363 fold change, the “GLIPR1 gene expression (fold change)” value was 1.450 fold change and the “GMFG gene expression (fold change)” value was 1.300 fold change. The “GPR174 gene expression (fold change)” value was 1.339 fold change, the “GZMK gene expression (fold change)” value was 1.402 fold change and the “HIST1H3A gene expression (fold change)” value was −1.363 fold change. The “HLA-DPA1 gene expression (fold change)” value was 1.364 fold change, the “HLA-DQA1 gene expression (fold change)” value was 1.378 fold change and the “HLA-DRA gene expression (fold change)” value was 1.439 fold change. The “IFI44L gene expression (fold change)” value was 1.320 fold change, the “IFI44 gene expression (fold change)” value was 1.429 fold change and the “IL33 gene expression (fold change)” value was 1.360 fold change. For the same molecule, the “IRF8 gene expression (fold change)” value was 1.392 fold change, the “KIAA0226L gene expression (fold change)” value was 1.371 fold change and the “KLRB1 gene expression (fold change)” value was 1.377 fold change. The “LYZ gene expression (fold change)” value was 1.603 fold change, the “MIRLET7C gene expression (fold change)” value was 1.366 fold change and the “MNDA gene expression (fold change)” value was 1.805 fold change. The “OCA2 gene expression (fold change)” value was −1.334 fold change, the “PARP14 gene expression (fold change)” value was 1.356 fold change and the “PCSK2 gene expression (fold change)” value was −1.566 fold change. The “PLAC8 gene expression (fold change)” value was 1.434 fold change, the “PLEK gene expression (fold change)” value was 1.449 fold change and the “PTPRC gene expression (fold change)” value was 1.446 fold change. The “RGS1 gene expression (fold change)” value was 1.379 fold change, the “RNASE6 gene expression (fold change)” value was 1.452 fold change and the “SAMD9 gene expression (fold change)” value was 1.382 fold change. For the same molecule, the “SELL gene expression (fold change)” value was 1.304 fold change, the “SPP1 gene expression (fold change)” value was 1.604 fold change and the “SRGN gene expression (fold change)” value was 1.353 fold change. The “ST8SIA4 gene expression (fold change)” value was 1.366 fold change, the “TPPP gene expression (fold change)” value was −1.328 fold change and the “TRPM1 gene expression (fold change)” value was −1.431 fold change. The “UGT2A1 gene expression (fold change)” value was −1.696 fold change and the “VCAM1 gene expression (fold change)” value was 1.357 fold change.
